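Protocol summary: plate cells (96-well), add compound at 5 concentrations, incubate 48 h, interpolate endpoints linearly. The concentration for full growth arrest is given as TGI.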
What was measured:
Test in all cases: DTP human tumour cell line panel, 48 h
OVCAR-4 ovarian = test system: OVCAR-4 ovarian
UACC-257 melanoma = test system: UACC-257 melanoma
UACC-62 melanoma = test system: UACC-62 melanoma
SF-295 CNS = test system: SF-295 CNS
SK-MEL-5 melanoma = test system: SK-MEL-5 melanoma
RXF 393 renal = test system: RXF 393 renal
LOX IMVI melanoma = test system: LOX IMVI melanoma
U251 CNS = test system: U251 CNS
SNB-75 CNS = test system: SNB-75 CNS
OVCAR-3 ovarian = test system: OVCAR-3 ovarian
PC-3 prostate = test system: PC-3 prostate

SMILES	TGI (OVCAR-4 ovarian) [µM]	TGI (UACC-257 melanoma) [µM]	TGI (UACC-62 melanoma) [µM]	TGI (SF-295 CNS) [µM]	TGI (SK-MEL-5 melanoma) [µM]	TGI (RXF 393 renal) [µM]	TGI (LOX IMVI melanoma) [µM]	TGI (U251 CNS) [µM]	TGI (SNB-75 CNS) [µM]	TGI (OVCAR-3 ovarian) [µM]	TGI (PC-3 prostate) [µM]
O=C1O[C@@H](c2ccccc2)C[C@@H]1CN1CCOCC1	> 100	> 100	> 100	> 100	> 100	> 100	> 100	> 100	> 100	> 100	–
O=C1CC2(C[C@@H]3CCCCCCCCC[C@@H](C3)C2)N1 (stereo partly specified)	36.3	25.1	30.3	31.2	30.6	30.9	–	30.3	20.6	–	–
N#CCCN(c1ccc(C=Nc2cccc([N+](=O)[O-])c2)cc1)S(=O)(=O)c1ccccc1	> 100	> 100	> 100	> 100	–	–	–	–	> 100	> 100	–
O=C1CC(C(O)CO)CC(=O)N1 (stereo unspecified)	–	> 100	–	> 100	> 100	–	> 100	> 100	–	> 100	> 100
COC1O[C@H]2CCN(C(=O)OCc3ccccc3)[C@H]2[C@H]1OCc1ccccc1 (stereo partly specified)	> 100	> 100	64.4	> 100	64.6	> 100	> 100	> 100	> 100	> 100	–
Cc1ccc(-c2cc(N)n(-c3nc4c([nH]3)c(=O)n(C)c(=O)n4C)n2)cc1	> 100	82.3	22.7	24.9	17	81.1	–	> 100	–	18.9	> 100
COc1ccc(C2C(Cl)C(=O)N2NC(=O)c2ccc(NC(C)=O)cc2)cc1 (stereo unspecified)	> 100	> 100	> 100	> 100	> 100	> 100	> 100	> 100	> 100	> 100	–
Cc1c(Cl)cccc1NC(=O)C(=O)C1C(=O)CC(C)(C)CC1=O	> 100	> 100	> 100	> 100	> 100	> 100	> 100	> 100	> 100	> 100	–
Nc1nc2ncc(SCc3ccc(C(=O)NC(CCC(=O)O)C(=O)O)cc3)cc2c(=O)[nH]1 (stereo unspecified)	> 100	> 100	> 100	> 100	> 100	–	> 100	> 100	–	> 100	> 100
CCOC(=O)C(OCC1CC=CCC1)Sc1ccccc1 (stereo unspecified)	–	> 100	> 100	> 100	> 100	–	> 100	> 100	> 100	> 100	–
CCN(CC)CCn1c2cc3c(cc2c(=O)c2cccnc21)OCCO3	> 10	> 10	> 10	> 10	> 10	> 10	–	> 10	> 10	> 10	> 10
COc1ccc2nc(-c3ccc(OCc4ccccc4)cc3)ccc2c1	> 100	> 100	> 100	> 100	> 100	> 100	> 100	–	> 100	> 100	–

Reference: PubChem BioAssay (NCI)
